What all share (assay): biochemical
What all share (type): biochemical

Assay [1] addresses T1, 382 unique human kinases (Homo sapiens, UniProt Q96L34).
T1 construct: purchased Reaction Biology (HotSpot contract assay)
T1 sequence (Q96L34 1-752): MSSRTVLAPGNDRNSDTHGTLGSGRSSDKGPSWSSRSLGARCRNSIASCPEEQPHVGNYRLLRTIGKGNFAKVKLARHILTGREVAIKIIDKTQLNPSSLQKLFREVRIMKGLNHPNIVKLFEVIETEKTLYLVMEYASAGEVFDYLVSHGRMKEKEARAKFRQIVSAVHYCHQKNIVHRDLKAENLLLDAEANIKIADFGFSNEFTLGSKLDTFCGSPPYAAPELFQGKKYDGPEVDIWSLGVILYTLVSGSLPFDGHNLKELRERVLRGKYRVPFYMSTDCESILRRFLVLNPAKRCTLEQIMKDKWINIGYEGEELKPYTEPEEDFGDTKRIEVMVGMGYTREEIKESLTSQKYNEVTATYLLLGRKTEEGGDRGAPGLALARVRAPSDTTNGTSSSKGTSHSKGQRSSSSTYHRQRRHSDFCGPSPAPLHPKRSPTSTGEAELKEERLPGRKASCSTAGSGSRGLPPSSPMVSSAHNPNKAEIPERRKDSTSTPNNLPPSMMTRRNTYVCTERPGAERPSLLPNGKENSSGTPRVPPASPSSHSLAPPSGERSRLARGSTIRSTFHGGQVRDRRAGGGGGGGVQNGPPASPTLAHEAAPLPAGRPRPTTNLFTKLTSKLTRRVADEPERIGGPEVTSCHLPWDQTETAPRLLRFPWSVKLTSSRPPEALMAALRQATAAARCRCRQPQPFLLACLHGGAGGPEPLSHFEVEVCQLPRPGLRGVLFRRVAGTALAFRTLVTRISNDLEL
The following applies: kinase MARK4, compound 10 uM; for remaining activity at 10 µM: read-out: % Enzyme Activity (relative to DMSO controls).

Assay [2] addresses T2, 382 unique human kinases (Homo sapiens, UniProt P09619).
T2 construct: purchased Reaction Biology (HotSpot contract assay)
Conditions: kinase PDGFRb, compound 10 uM; for remaining activity at 10 µM: read-out: % Enzyme Activity (relative to DMSO controls).

For assay [3], the target named is T3, 382 unique human kinases (Homo sapiens, UniProt O43781).
T3 construct: purchased Reaction Biology (HotSpot contract assay)
T3 sequence (O43781 1-588): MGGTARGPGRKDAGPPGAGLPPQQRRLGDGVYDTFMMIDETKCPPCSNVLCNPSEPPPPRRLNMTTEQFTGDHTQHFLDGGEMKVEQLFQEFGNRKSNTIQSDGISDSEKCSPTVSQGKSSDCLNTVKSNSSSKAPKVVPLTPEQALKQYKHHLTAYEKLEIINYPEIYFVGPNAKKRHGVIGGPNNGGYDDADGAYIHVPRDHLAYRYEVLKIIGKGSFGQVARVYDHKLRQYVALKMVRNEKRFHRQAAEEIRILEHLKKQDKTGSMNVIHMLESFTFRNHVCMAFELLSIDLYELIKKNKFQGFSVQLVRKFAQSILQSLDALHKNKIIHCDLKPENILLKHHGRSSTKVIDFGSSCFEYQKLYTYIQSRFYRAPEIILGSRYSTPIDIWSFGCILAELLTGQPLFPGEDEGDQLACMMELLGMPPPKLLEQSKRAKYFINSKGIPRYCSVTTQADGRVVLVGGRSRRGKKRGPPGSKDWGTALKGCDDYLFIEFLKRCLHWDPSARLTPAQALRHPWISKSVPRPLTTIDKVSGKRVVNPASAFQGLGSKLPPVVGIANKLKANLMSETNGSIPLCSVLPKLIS
The following applies: DYRK3, 10 uM; for remaining activity at 10 µM: read-out: % Enzyme Activity (relative to DMSO controls).

Assay [4] addresses T4, 382 unique human kinases (Homo sapiens, UniProt Q15569).
T4 construct: purchased Reaction Biology (HotSpot contract assay)
Conditions: TESK1, compound at 10 uM, duplicate values; for remaining activity at 10 µM: read-out: % Enzyme Activity (relative to DMSO controls).

For assay [5], the target named is T5, 382 unique human kinases (Homo sapiens, UniProt Q02763).
T5 construct: purchased Reaction Biology (HotSpot contract assay)
Conditions: for remaining activity at 10 µM: read-out: % Enzyme Activity (relative to DMSO controls).

Assay [6] deals with T6, 382 unique human kinases (Homo sapiens, UniProt Q9Y2H1).
T6 construct: purchased Reaction Biology (HotSpot contract assay)
Conditions: STK38L/NDR2, compound at 10 uM, duplicate values; for remaining activity at 10 µM: read-out: % Enzyme Activity (relative to DMSO controls).

Assay [7] concerns the target T7, 382 unique human kinases (Homo sapiens, UniProt Q5S007, G2019S).
T7 construct: purchased Reaction Biology (HotSpot contract assay)
Conditions: LRRK2 (G2019S), [ATP] 50 µM, compound 10 uM; for remaining activity at 10 µM: read-out: % Enzyme Activity (relative to DMSO controls).

In assay [8] the target is T8, 382 unique human kinases (Homo sapiens, UniProt P10721, V560G).
T8 construct: purchased Reaction Biology (HotSpot contract assay)
Conditions: c-Kit (V560G), [ATP] 20 µM, compound 10 uM; for remaining activity at 10 µM: read-out: % Enzyme Activity (relative to DMSO controls).

For assay [9], the target named is T9, 382 unique human kinases (Homo sapiens, UniProt Q05655).
T9 construct: purchased Reaction Biology (HotSpot contract assay)
T9 sequence (Q05655 whole entry): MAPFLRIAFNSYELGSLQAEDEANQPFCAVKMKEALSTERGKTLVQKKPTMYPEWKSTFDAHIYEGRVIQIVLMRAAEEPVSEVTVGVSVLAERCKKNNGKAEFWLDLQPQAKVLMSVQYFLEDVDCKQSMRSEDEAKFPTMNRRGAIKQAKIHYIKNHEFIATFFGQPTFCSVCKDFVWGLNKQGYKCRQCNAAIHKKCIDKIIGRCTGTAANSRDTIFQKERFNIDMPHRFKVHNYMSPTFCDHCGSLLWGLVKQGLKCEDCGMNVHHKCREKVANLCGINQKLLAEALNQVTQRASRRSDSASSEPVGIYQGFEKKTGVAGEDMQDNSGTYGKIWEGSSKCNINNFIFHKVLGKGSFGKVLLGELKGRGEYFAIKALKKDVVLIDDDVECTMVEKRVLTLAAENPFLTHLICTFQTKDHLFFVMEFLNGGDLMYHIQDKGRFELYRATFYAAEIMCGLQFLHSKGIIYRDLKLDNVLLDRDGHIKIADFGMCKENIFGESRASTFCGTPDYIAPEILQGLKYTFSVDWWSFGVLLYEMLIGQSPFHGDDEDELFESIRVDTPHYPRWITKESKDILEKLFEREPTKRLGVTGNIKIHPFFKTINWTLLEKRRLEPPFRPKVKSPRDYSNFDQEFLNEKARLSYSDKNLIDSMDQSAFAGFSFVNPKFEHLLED
Conditions: PKCd, 10 uM; for remaining activity at 10 µM: read-out: % Enzyme Activity (relative to DMSO controls).

Assay [10] concerns the target T10, 382 unique human kinases (Homo sapiens, UniProt Q9H0K1).
T10 construct: purchased Reaction Biology (HotSpot contract assay)
The following applies: SIK2, [ATP] 30 µM.

[11] abbreviates: TIE2/TEK, compound at 10 uM, duplicate values.
[12] abbreviates: compound 10 uM, read-out: % Enzyme Activity (relative to DMSO controls).

Here are results for four compounds from paper PMC8550792, “Evolution of kinase polypharmacology across HSP90 drug discovery” (Cell Chemical Biology, 2021).

Where two headings read alike, the source gives them in different places.

T2 sequence (P09619 33-1106): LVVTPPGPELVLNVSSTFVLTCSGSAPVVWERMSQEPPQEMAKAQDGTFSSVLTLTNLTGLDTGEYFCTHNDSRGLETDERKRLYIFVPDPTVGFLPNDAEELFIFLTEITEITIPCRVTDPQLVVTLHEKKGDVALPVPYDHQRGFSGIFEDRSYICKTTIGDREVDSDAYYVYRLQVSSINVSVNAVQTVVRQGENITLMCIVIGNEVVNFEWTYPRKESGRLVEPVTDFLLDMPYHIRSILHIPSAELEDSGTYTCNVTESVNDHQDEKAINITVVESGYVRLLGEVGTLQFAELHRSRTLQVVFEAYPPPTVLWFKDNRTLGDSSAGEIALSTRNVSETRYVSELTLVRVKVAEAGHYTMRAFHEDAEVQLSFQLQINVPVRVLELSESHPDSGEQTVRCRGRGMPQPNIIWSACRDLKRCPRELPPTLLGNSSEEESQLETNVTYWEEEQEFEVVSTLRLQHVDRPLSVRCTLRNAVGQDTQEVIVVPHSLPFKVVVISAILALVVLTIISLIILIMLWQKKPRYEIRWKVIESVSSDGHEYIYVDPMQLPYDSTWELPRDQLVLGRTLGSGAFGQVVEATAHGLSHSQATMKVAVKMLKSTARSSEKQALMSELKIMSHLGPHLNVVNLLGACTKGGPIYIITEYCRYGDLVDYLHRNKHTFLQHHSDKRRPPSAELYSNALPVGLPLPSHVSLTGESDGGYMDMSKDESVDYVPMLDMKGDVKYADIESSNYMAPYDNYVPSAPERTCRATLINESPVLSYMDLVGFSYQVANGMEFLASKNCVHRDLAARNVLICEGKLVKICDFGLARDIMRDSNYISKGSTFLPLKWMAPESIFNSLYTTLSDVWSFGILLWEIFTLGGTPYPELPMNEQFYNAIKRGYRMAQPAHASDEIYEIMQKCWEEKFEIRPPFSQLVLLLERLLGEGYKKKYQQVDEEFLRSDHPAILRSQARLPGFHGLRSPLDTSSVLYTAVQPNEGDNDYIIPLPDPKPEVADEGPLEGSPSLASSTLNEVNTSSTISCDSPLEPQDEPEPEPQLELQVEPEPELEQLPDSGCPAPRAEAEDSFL
T7 sequence (Q5S007 whole entry G2019S): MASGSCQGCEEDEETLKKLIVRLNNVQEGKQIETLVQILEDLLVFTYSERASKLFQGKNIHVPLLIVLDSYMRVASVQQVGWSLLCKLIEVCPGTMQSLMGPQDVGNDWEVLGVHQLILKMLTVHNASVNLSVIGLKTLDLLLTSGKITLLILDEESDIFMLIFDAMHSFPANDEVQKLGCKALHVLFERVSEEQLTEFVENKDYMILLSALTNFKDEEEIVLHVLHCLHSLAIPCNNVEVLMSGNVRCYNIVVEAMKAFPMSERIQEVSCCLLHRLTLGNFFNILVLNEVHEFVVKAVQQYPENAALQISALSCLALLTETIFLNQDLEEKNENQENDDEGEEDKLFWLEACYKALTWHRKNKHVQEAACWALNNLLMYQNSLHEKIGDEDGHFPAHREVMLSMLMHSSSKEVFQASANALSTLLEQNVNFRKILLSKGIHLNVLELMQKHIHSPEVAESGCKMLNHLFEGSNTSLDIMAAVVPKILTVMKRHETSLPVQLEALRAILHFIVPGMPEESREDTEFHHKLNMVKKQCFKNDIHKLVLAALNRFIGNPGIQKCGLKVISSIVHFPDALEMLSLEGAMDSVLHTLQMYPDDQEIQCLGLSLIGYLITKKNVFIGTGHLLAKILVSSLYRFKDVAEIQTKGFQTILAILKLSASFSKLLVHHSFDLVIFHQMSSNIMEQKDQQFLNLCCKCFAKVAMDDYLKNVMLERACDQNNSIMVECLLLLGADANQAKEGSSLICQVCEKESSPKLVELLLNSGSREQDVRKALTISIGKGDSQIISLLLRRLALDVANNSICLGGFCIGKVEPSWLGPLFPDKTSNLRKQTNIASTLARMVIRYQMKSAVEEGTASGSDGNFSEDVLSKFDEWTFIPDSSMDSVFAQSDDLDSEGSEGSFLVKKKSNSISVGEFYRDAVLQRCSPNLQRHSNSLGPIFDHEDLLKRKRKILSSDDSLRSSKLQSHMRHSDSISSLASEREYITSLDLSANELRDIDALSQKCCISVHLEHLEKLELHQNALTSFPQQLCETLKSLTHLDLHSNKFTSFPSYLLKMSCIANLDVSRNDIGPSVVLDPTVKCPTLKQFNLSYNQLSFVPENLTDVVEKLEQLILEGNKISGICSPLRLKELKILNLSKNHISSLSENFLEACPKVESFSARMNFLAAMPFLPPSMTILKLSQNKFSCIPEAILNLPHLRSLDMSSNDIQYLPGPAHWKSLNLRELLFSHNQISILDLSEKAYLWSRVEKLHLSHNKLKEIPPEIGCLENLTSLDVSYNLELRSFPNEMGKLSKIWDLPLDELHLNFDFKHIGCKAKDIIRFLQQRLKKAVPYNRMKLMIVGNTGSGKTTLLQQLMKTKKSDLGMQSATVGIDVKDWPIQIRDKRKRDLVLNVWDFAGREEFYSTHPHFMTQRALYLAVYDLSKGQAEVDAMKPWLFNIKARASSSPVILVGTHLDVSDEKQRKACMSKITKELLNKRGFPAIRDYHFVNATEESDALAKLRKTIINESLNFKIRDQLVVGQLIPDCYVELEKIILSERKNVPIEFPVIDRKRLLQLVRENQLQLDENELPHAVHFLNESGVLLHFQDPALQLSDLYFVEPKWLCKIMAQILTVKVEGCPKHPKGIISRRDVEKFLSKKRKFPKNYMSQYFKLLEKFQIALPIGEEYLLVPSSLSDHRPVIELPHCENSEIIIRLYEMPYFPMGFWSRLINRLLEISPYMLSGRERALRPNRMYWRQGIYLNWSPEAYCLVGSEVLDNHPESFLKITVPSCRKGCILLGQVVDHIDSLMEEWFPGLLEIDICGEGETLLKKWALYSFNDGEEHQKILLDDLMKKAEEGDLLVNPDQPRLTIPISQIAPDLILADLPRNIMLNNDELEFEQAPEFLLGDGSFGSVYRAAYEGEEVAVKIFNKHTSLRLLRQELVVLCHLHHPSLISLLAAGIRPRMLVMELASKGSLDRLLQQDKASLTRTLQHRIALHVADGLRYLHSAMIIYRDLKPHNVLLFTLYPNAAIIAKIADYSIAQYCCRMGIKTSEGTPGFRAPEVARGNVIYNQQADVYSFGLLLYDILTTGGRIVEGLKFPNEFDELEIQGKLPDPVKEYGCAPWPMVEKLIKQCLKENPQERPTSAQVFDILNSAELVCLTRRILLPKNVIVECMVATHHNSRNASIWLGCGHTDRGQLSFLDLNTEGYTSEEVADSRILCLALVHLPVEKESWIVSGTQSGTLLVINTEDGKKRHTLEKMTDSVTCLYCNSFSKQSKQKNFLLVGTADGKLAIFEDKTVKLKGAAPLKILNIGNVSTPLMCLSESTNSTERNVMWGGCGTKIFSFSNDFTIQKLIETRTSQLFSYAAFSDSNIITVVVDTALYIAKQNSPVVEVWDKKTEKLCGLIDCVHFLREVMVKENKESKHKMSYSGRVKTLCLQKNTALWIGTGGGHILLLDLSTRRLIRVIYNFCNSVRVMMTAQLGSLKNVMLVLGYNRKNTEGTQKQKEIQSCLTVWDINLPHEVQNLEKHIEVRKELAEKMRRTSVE
T4 sequence (Q15569 whole entry): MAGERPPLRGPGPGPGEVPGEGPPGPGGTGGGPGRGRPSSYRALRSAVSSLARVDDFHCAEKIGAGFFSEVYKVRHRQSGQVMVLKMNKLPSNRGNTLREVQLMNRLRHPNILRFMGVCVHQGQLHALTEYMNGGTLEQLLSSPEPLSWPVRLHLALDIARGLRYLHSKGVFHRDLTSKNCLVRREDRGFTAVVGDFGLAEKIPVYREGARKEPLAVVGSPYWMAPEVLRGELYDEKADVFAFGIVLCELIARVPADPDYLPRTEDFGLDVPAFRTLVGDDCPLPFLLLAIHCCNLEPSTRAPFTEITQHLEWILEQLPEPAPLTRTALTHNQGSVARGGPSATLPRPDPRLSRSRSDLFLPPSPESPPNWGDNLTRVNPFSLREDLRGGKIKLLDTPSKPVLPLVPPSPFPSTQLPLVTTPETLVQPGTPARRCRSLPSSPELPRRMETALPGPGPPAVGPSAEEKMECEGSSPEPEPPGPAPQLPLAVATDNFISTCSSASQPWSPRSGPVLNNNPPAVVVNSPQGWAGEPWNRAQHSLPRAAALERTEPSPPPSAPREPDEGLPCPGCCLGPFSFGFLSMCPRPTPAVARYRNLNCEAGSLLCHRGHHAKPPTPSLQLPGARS

Take `CC(C)c1cc(-c2n[nH]c(=O)n2-c2ccc3c(ccn3C)c2)c(O)cc1O` [Ganetespib (STA9090)]: the remaining activity at 10 µM turned out to be 91% on 382 unique human kinases [1]; 92.1% at 382 unique human kinases [2]; 67.1% at 382 unique human kinases [3]; 101% at 382 unique human kinases [4]; 71% at 382 unique human kinases [5] (TIE2 (A1124V), 10 uM); 101% at 382 unique human kinases [5] (setting [11]). Besides, on 382 unique human kinases [6], the remaining activity at 10 µM came out at 105%.
For `CC(C)c1cc(-c2n[nH]c(=O)n2-c2ccc3c(ccn3C)c2)c(O)cc1O` [Ganetespib], the remaining activity at 10 µM at 382 unique human kinases [7] came to 28.6%; on 382 unique human kinases [8] it was 58.9%; at 382 unique human kinases [9], 92%; on 382 unique human kinases [10] (setting [12]) it was 4.64%. Besides, the remaining activity at 1 µM on 382 unique human kinases [10] (compound 1 uM, read-out: % Enzyme Activity (relative to DMSO controls)) is 70.2%.
`CCNC(=O)c1noc(-c2cc(C(C)C)c(O)cc2O)c1-c1ccc(CN2CCOCC2)cc1` [Luminespib (AUY-922)]: the “% Enzyme Activity (relative to DMSO controls)” value at 382 unique human kinases [1] was 95.99%; at 382 unique human kinases [2], 81.53%; on 382 unique human kinases [3] it was 94.13%; at 382 unique human kinases [4], 104.01%; at 382 unique human kinases [5] (TIE2 (A1124V), 10 uM), 95.16%; at 382 unique human kinases [5] (setting [11]) it was 106.94%. For the same compound, the “% Enzyme Activity (relative to DMSO controls)” value at 382 unique human kinases [6] came to 105.09%. The remaining activity at 10 µM on 382 unique human kinases [1] was 97.1%; on 382 unique human kinases [2] it was 83.2%; on 382 unique human kinases [3], 94.8%; at 382 unique human kinases [4], 104%; at 382 unique human kinases [5] (TIE2 (A1124V), 10 uM), 96.5%; at 382 unique human kinases [5] (setting [11]), 108%. Moreover, on 382 unique human kinases [6], the remaining activity at 10 µM came to 108%.
In the case of `CCNC(=O)c1noc(-c2cc(C(C)C)c(O)cc2O)c1-c1ccc(CN2CCOCC2)cc1` [Luminespib], the “% Enzyme Activity (relative to DMSO controls)” value is 91.80% on 382 unique human kinases [7], 109.32% at 382 unique human kinases [8], 95.84% on 382 unique human kinases [9] and 80.93% at 382 unique human kinases [10] (compound 10 uM). Moreover, the remaining activity at 10 µM at 382 unique human kinases [7] came out at 93.5%; on 382 unique human kinases [8], 111%; on 382 unique human kinases [9] it was 96.4%; at 382 unique human kinases [10] (setting [12]), 81.2%.
